From patent US7294710B2 (Japan Science and Technology Agency, priority 1999, dated 2007)

T1: nematode high-affinity choline transporter cho-1 (C48D1.3) (Caenorhabditis elegans, UniProt O02228)
T1 construct: injecting each cRNA prepared from candidate full-length cDNAs; expressed in transfected cells; host or cells: Xenopus oocytes (stage V to VI) microinjected with capped cRNA transcribed from modified pSPUTK vector
T1 sequence (O02228 1-576): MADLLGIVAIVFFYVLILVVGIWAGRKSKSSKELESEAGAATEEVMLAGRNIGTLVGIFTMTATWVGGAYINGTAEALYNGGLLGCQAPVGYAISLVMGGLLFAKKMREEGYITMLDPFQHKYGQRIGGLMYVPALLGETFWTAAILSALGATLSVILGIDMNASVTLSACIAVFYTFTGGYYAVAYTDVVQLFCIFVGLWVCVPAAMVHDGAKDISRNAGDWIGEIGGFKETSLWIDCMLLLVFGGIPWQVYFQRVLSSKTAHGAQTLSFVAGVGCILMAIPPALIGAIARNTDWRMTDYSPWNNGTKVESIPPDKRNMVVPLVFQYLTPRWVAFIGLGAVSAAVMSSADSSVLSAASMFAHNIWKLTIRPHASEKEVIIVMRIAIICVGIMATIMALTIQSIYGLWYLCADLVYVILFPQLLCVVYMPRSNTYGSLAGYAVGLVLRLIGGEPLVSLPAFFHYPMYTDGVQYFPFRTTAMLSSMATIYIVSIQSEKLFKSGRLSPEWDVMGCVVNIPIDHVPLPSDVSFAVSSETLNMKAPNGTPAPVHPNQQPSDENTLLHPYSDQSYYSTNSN

T2: rat CHT1 (high-affinity choline transporter) (Rattus norvegicus, UniProt Q9JMD7)
T2 construct: expressed in transfected cells; host or cells: Xenopus oocytes microinjected with CHT1 cRNA (clone in pSPUTK vector)
T2 sequence (Q9JMD7 1-580): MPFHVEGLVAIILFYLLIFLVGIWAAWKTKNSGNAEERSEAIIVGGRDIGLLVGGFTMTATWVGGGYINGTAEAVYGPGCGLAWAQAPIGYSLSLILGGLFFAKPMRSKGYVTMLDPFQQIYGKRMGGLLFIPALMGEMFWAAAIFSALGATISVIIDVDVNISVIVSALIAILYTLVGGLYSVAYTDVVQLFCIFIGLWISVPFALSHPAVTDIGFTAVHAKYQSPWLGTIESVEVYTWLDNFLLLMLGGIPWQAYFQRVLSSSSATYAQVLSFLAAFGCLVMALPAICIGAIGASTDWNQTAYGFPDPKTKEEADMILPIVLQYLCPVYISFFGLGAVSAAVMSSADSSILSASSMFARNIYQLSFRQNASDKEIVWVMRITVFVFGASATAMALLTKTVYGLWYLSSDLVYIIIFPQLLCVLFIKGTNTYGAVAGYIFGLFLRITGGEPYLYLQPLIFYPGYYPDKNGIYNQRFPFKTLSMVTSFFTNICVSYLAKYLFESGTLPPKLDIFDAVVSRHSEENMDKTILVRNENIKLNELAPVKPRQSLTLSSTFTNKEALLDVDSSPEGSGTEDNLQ


Columns and labels:
[1] = target: T1, nematode high-affinity choline transporter cho-1 (C48D1.3); assay: [3H] choline uptake of Xenopus oocytes injected with nematode cho-1 (C48D1.3) cRNA; format: cell-based, C. elegans
Protocol: (§1) In the presence of cap analog, cRNA was synthesized in vitro with SP6 or T7 RNA polymerase. 20 to 30 ng capped RNA was microinjected into oocytes (stage V to VI) of Xenopus. […] The oocytes completing uptake were solubilized with 10% SDS, and the amount of [^3H] was measured by a liquid scintillation counter.

[2] = target: T2, rat CHT1 (high-affinity choline transporter); assay: [3H] choline uptake of Xenopus oocytes injected with CHT1 cRNA; format: cell-based
Protocol: as §1, with “Xenopus. The uptake was measured in basically same manner as described previously (Nature 360, 467-471, 1992).” for “Xenopus.”

[3] = test system: endogenous choline uptake of control oocytes; assay: Choline uptake of control Xenopus oocytes injected with water; format: cell-based; conditions: 10 μM HC3, oocytes injected with water
Protocol: as §1, with “Xenopus. The uptake was measured in basically same manner as described previously (Nature 360, 467-471, 1992).” for “Xenopus.”

[4] = test system: high-affinity uptake of choline in brain synaptosomes; conditions: cited from earlier work
[5] = test system: low-affinity uptake of choline, distributed in every cells; conditions: read-out: Ki of HC3 for low-affinity uptake of choline, higher HC3 concentration; cited from earlier work
[6] = substrate: C[N+](C)(C)CCO; assay: cells, lysate or membranes; conditions: other: Michaelis-Menten fit, water-injected uptake subtracted, n=3; pH 7.4

Molecule | Ki [1] [nM] | inhibition of cho-1 promoted choline uptake ([1]; 1 μM HC3, Xenopus oocytes) | Ki [2] [nM] | inhibition of choline uptake of CHT1 ([2]; 0.1 μM HC3) | inhibition of Na+-dependent choline uptake of CHT1 ([2]; CHT1 expressed in Xenopus oocytes, concentration not given) | inhibition of choline uptake in control [3] | inhibition of high-affinity uptake of choline ([4]; 1 μM HC3, brain synaptosomes of mammals) | Ki ([4]; read-out: Ki of HC3 for high-affinity uptake of choline, brain synaptosomes of mammals) [nM] | Ki [5] [nM] | Km [6] [µM]
C[N+]1(C)CCOC(O)(c2ccc(-c3ccc(C4(O)C[N+](C)(C)CCO4)cc3)cc2)C1 (stereo not shown) [HC3, hemicholinium-3] | 50 | inhibited | 2 to 3 | completely inhibited | completely inhibited | only slight inhibition | completely inhibited | 10 to 100 | 50000 | –
rat CHT1 (high-affinity choline transporter) (Rattus norvegicus) (protein) MPFHVEGLVAIILFYLLIFLVGIWAAWKTKNSGNAEERSEAIIVGGRDIGLLVGGFTMTATWVGGGYINGTAEAVYGPGCGLAWAQAPIGYSLSLILGGLFFAKPMRSKGYVTMLDPFQQIYGKRMGGLLFIPALMGEMFWAAAIFSALGATISVIIDVDVNISVIVSALIAILYTLVGGLYSVAYTDVVQLFCIFIGLWISVPFALSHPAVTDIGFTAVHAKYQSPWLGTIESVEVYTWLDNFLLLMLGGIPWQAYFQRVLSSSSATYAQVLSFLAAFGCLVMALPAICIGAIGASTDWNQTAYGFPDPKTKEEADMILPIVLQYLCPVYISFFGLGAVSAAVMSSADSSILSASSMFARNIYQLSFRQNASDKEIVWVMRITVFVFGASATAMALLTKTVYGLWYLSSDLVYIIIFPQLLCVLFIKGTNTYGAVAGYIFGLFLRITGGEPYLYLQPLIFYPGYYPDKNGIYNQRFPFKTLSMVTSFFTNICVSYLAKYLFESGTLPPKLDIFDAVVSRHSEENMDKTILVRNENIKLNELAPVKPRQSLTLSSTFTNKEALLDVDSSPEGSGTEDNLQ | – | – | – | – | – | – | – | – | – | 2.2 ± 0.2
